Species on record: Homo sapiens
Assay: In vitro inhibitory concentration against Chymotrypsin-like catalytic activity of the human 20S Proteasome
Assay type: functional

COc1ccc(CN[C@@H](C(=O)N[C@H](C(=O)NCc2ccc(OC)cc2OC)C(C)C)[C@H](O)[C@H](Cc2ccccc2)NC(=O)[C@@H](NC(=O)OCc2ccccc2)C(C)C)cc1
IC50: > 20 µM
